Source: US8193189B2, “Quinoxaline derivatives as tyrosine kinase activity inhibitors” (Novartis AG, priority 2007, dated 2012)

Key:
[1] = target: T1, GST-JAK1(866-1154) (Homo sapiens, UniProt P23458); experiment: EPK JAK-family kinases profiling assay (Caliper mobility shift), JAK1; assay type: biochemical; conditions: ATP 40 μM, 50 nM kinase
T1 construct: GST-JAK1(866-1154); made in house
How it was run: (§1)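 Turnover was read as substrate/product ratio after mobility-shift capillary-like separation of each reaction, run for 60 min at 30 °C with GST-tagged kinase domain, labelled peptide and ATP, and terminated with EDTA stop buffer.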

[2] = target: T2, GST-JAK3(811-1124) (Homo sapiens, UniProt P52333); experiment: EPK JAK-family kinases profiling assay (Caliper mobility shift), JAK3; assay type: biochemical; conditions: ATP 80 μM, 6 nM kinase
T2 construct: GST-JAK3(811-1124); made in house
T2 sequence (P52333 811-1124): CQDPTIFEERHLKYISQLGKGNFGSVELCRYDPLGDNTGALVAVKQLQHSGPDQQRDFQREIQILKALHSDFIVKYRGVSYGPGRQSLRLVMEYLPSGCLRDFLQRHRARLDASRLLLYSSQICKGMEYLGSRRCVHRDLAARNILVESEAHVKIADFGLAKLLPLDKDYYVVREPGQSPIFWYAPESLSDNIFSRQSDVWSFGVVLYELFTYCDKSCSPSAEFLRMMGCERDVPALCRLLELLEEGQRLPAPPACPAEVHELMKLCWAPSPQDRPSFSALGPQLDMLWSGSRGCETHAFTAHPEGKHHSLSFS
How it was run: as §1

[3] = target: T3, GST-TYK2(888-1187) (Homo sapiens, UniProt P29597); experiment: EPK JAK-family kinases profiling assay (Caliper mobility shift), TYK2; assay type: biochemical; conditions: ATP 30 μM, 40 nM kinase
T3 construct: GST-TYK2(888-1187); made in house
T3 sequence (P29597 888-1187): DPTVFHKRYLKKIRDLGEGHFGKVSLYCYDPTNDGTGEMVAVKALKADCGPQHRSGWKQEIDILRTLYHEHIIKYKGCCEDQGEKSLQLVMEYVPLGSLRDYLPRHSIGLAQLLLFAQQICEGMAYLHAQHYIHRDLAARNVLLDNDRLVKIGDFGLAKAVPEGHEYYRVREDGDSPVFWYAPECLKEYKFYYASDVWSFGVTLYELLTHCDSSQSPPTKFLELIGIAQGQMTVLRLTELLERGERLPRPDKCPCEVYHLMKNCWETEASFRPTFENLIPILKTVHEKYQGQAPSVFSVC
How it was run: as §1

[4] = target: T4, GST-JAK2(808-1132) (Homo sapiens, UniProt O60674); experiment: EPK JAK-family kinases profiling assay (Caliper mobility shift), JAK2; assay type: biochemical; conditions: ATP 20 μM, 1.8 nM kinase
T4 construct: GST-JAK2(808-1132); purchased Invitrogen (Carlsbad, USA) #4288
T4 sequence (O60674 808-1132): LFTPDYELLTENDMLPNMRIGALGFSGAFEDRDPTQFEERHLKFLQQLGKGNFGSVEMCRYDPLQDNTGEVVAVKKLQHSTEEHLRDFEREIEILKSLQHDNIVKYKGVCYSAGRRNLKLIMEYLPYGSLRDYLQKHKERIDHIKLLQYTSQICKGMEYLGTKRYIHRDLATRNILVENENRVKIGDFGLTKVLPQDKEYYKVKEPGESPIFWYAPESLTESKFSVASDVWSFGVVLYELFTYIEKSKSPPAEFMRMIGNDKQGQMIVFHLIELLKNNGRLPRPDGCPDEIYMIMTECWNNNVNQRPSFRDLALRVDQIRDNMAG
How it was run: as §1

[5] = tested on: JAK/STAT pathway (JAK1/JAK2-dependent nuclear translocation of STAT1-GFP); experiment: Inhibition of the JAK/STAT pathway: IFN-γ stimulated nuclear translocation of STAT1-GFP in HT1080 fibrosarcoma cells; assay type: cell-based; conditions: Homo sapiens, HT-1080; HT1080 STAT1-GFP cells, 100 ng/ml IFN-γ 2 hours, compound added 30 min before; read-out: STAT1translo IC50
How it was run: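 Readout is the nuclear-minus-cytoplasmic GFP-STAT1 intensity, imaged at 10× using Hoechst-defined nuclear masks over at least 1000 cells/well. Stably transfected HT1080 fibrosarcoma cells were pretreated 30 min with compound (final 0.003–10 μM, 0.1% DMSO) before IFN-γ challenge.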

T1 sequence (P23458 866-1154): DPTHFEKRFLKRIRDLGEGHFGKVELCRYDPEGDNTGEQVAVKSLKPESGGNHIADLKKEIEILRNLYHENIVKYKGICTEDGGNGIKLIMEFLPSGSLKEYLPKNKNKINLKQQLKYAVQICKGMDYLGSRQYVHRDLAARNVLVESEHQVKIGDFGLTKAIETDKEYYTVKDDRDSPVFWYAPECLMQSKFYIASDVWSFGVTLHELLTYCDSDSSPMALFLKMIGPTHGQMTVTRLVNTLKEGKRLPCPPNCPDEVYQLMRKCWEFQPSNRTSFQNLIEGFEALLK

IC50 [1]: 135 nM
IC50 [2]: 1950 nM
IC50 [3]: 170 nM
IC50 [4]: 5 nM
IC50 [5]: 180 nM
SMILES: COCCN1CCC(n2cc(-c3cnc4cccc(-c5cc(F)c(CN6CCOCC6)c(F)c5)c4n3)cn2)CC1 [Example 123, 8-(3,5-Difluoro-4-morpholin-4-ylmethyl-phenyl)-2-{1-[1-(2-methoxy-ethyl)-piperidin-4-yl]-1H-pyrazol-4-yl}-quinoxaline]
